In patent US6737425B1, “N,N-substituted cyclic amine derivatives” (Eisai Co., Ltd., priority 1998, dated 2004) one finds IC50 data, which are given here for 28 compounds.

SMILES strings stand for the structures. Counter-ions that a name gives are not always drawn.

The subject of assay [1] is voltage-dependent calcium channels (cerebral cortex synaptosome). Put plainly: Measurement of voltage-dependent calcium channel activity by the use of a fluorescent pigment (fura 2). The note with it: rat cerebral cortex synaptosome, fura 2, KCl stimulation, compound incubated 10 minutes. The assay is classed as cell-based. The method, then: Measurement of Voltage-dependent Calcium Channel Activity by the use of a Fluorescent Pigment (fura 2)
Cerebral cortexes were removed from cut rat brains and disrupted roughly with scissors. These were introduced into a homogenizer, homogenized in 0.3 M saccharose and centrifuged at 4° C. (1,500 g×10 min). The resulting supernatant was further centrifuged at 4° C. (10,000 g×20 min). The resulting precipitates were suspended in 0.3 M saccharose. The suspension was layered on 0.8 M saccharose and centrifuged (10,000 g×30 min.).
4 μM fura 2/AM (Dojin Ltd.) was suspended in solution A to prepare a loading solution. To the synaptosome solution prepared in the method described above was added an equal volume of the loading solution, and the mixture was incubated for 40 minutes at room temperature.
As comparative and control compound, verapamil hydrochloride was used.

Assay [2] concerns glutamic acid release from rat cerebral cortex slices. The assay can be described thus: Inhibitory activity on glutamic acid release (cerebral cortex slices, high-conc. KCl). It counts as cell-based. The note with it: glutamic acid release induced with 50 mM KCl, HPLC. As for the experimental part:
Inhibitory Activity on Glutamic Acid Release
Cerebral cortexes were isolated from SD strain male rats (8-week-old) and used to prepare 300 μm×300 μm slices by use of a slice chopper. The prepared slices were incubated at 37° C. for 30 minutes in solution C (120 mM NaCl, 4 mM KCl, 10 mM MgSO4, 16 mM NaHCO3, 10 mM glucose, 1 mM NaH2PO4, 10 mM HEPES-NaOH pH 7.4) in the presence of 95% O2/5% CO2. Thereafter, solution C was exchanged with fresh one, followed by further incubation for 30 minutes.
The cerebral cortex slices were incubated in a 24-wells plate for cell culture according to a multi-well method (Brain Res., 402, 255-263, 1987), and the release of glutamic acid was induced with 50 mM KCl. Solution D (120 mM NaCl, 4 mM KCl, 1.2 mM CaCl2, 1 mM MgSO4, 16 mM NaHCO3, 10 mM glucose, 1 mM NaH2PO4, 10 mM HEPES-NaOH pH 7.4) was aerated with 95% O2/5% CO2 and kept at 37° C. and used in this experiment. 50 mM KCl containing the same total amount of K^+ and Na^+ was prepared. Slices corresponding to 1 to 2 mg protein were placed on an upper cup provided with a mesh at the bottom, and 1.3 ml solution C or 50 mM KCl solution was introduced into a lower well, and the upper cup was transferred to a new well. 20 minutes before and 5 minutes after reaction was intiated, the test compound was added to solution D or 50 mM KCl.
Glutamic acid was quantified by HPLC using fluorescent etor (Ex. 330 nm Em. […]). The eluting solvent used was prepared by diluting 150 ml sodium citrate buffer for automatic amino acid analysis (Wako Pure Chemical Industries) 10-fold with distilled water, then adding MgCl2 thereto at the final concentration of 50 mM, and further diluting it twice with acetonitrile. The flow rate was 2.0 ml/min. The column used was Asahipak (ES-502N Denko, K. K.). The glutamic acid was converted into a derivative by addition, to 50 μl sample, of 50 μl deriving agent (10 mg o-phthalaldehyde/500 μl MeOH, 10 μl b-mercaptopropionic acid, 0.15 M sodium borate buffer pH 9.5, 100 μl) followed by stirring (Neuroscience Lett., 96, 202-206, 1989).

One may read the IC50 as the concentration at which inhibition is half-maximal. With `CC(C)C(C#N)(CCCN1CCN(CCOc2ccc(F)cc2)CC1)c1ccccc1` (single isomer, unassigned; (+)) [Example 76, (+)-1-[(4-Cyano-5-methyl-4-phenyl)hexyl]-4-[2-(4-fluorophenoxyl)ethyl]piperazine Hydrochloride], the figures for the half-maximal inhibitory concentration (IC50) in assay [1] (Hydrochloride) and in assay [2] (Hydrochloride) were 5.8 µM and 3.9 µM, respectively.

For `CC(C)C(C#N)(CCCN1CCN(CCOc2ccc(F)cc2)CC1)c1ccccc1` (single isomer, unassigned; (-)) [Example 75, hydrochloride], the IC50 was 4.5 µM in assay [1] (Hydrochloride) and 2.9 µM in assay [2] (Rattus norvegicus). For `N#CC(CCCN1CCN(CCOc2ccc(F)cc2)CC1)(c1ccccc1)C1CCCCC1` (single isomer, unassigned; (-)) [Example 79, (−)-1-[(4-Cyano-4-cyclohexyl-4-phenyl)butyl]-4-[2-(4-fluorophenoxyl)ethyl]piperazine Hydrochloride], the results for the IC50 in assay [1] (Hydrochloride) and in assay [2] (Rattus norvegicus) were 3.3 µM and 5.9 µM, respectively.

Turning to `Cc1ccc(C(C#N)(CCCN2CCN(CCOc3ccc(F)cc3)CC2)C(C)C)cc1` (stereo not shown) [Example 9, 1-[4-Cyano-5-methyl-4-(4-methylphenyl)hexyl]-4-[2-(4-fluorophenoxy)ethyl]piperazine], the IC50 in assay [1] was 3.5 µM; in assay [2] (Rattus norvegicus) it was 2.4 µM. The matching figures for `CC(C)C(C#N)(CCCN1CCN(CCOc2ccc(F)cc2)CC1)c1ccc(Cl)cc1` (stereo not shown) [Example 10, 1-[4-Cyano-5-methyl-4-(4-chlorophenyl)hexyl]-4-[2-(4-fluorophenoxy)ethyl]piperazine]: 3.2 µM and 2 µM. On to `COc1ccc(C(C#N)(CCCN2CCN(CCOc3ccc(F)cc3)CC2)C(C)C)cc1` (stereo not shown) [Example 11, 1-[4-Cyano-5-methyl-4-(4-methoxyphenyl)hexyl]-4-[2-(4-fluorophenoxy)ethyl]piperazine], for which the figures for the half-maximal inhibitory concentration (IC50) in assay [1] and in assay [2] (Rattus norvegicus) were 4.8 µM and 3.8 µM, respectively. As for `CC(C)C(C#N)(CCCN1CCN(CCOc2ccc(F)cc2)CC1)c1cccs1` (stereo not shown) [Example 20, 1-{[4-Cyano-5-methyl-4-(2-thienyl)hexyl]}-4-[2-(4-fluorophenoxy)ethyl]piperazine], the values for the 50% inhibitory concentration (IC50) in assay [1] and in assay [2] (Rattus norvegicus) were 5.5 µM and 1.9 µM, respectively. `CC(C)C(C#N)(CCCN1CCN(CCOc2ccc(F)cc2)CC1)c1ccccc1F` (stereo not shown) [Example 22, 1-{[4-Cyano-5-methyl-4-(2-fluorophenyl)hexyl]}-4-[2-(4-fluorophenoxy)ethyl]piperazine]: the half-inhibitory concentration (IC50) is 5.4 µM in assay [1] and 4.1 µM in assay [2] (Rattus norvegicus). Consider `CC(C)C(C#N)(CCCN1CCN(CCOc2ccc(F)cc2)CC1)c1cccc(F)c1` (stereo not shown) [Example 23, 1-[{4-Cyano-5-methyl-4-(3-flourophenyl)hexyl]}-4-[2-(4-fluorophenoxy)ethyl]piperazine], for which the figures for the IC50 in assay [1] and in assay [2] (Rattus norvegicus) were 4.3 µM and 2.5 µM, respectively. The matching figures for `CC(C)C(C#N)(CCCN1CCN(CCOc2ccc(F)cc2)CC1)c1ccc(F)cc1` (stereo not shown) [Example 24, 1-{[4-Cyano-5-methyl-4-(4-fluorophenyl)hexyl]}-4-[2-(4-fluorophenoxy)ethyl]piperazine]: 3.9 µM and 2.4 µM. `CC(C)C(C#N)(CCCN1CCN(CCOc2ccc(Cl)cc2)CC1)c1ccccc1` (stereo not shown) [Example 36, 1-[(4-Cyano-5-methyl-4-phenyl)hexyl]-4-[2-(4-chlorophenoxy)ethyl]piperazine]: the IC50 in assay [1] turned out to be 3.4 µM; in assay [2] (Rattus norvegicus), 4.2 µM.

For the compound `CC(C)C(C#N)(CCCN1CCN(CCN(C)c2ccc(F)cc2)CC1)c1ccccc1` (stereo not shown) [Example 52, 1-[(4-Cyano-5-methyl-4-phenyl)hexyl]-4-{2-[N-(4-fluorophenyl)-N-methylamino]ethyl}piperazine], the IC50 was determined as 3.8 µM in assay [1] and 2.9 µM in assay [2] (Rattus norvegicus). Regarding `CC(C)C(C#N)(CCCN1CCN(CCOc2cccc(-c3cccnc3)c2)CC1)c1ccccc1` (stereo not shown) [Example 107, 1-[(4-Cyano-5-methyl-4-phenyl)hexyl]-4-{2-[3-(3-pyridyl)phenoxy]ethyl}piperazine], in assay [1], the IC50 came out at 4.1 µM. The same measure, in the same setting: as for `CC(C)C(C#N)(CCCN1CCN(CCOc2ccc(Br)cc2)CC1)c1ccccc1` (stereo not shown) [Example 108, 1-[(4-Cyano-5-methyl-4-phenyl)hexyl]-4-[2-(4-bromophenoxy)ethyl]piperazine], the figure is 3.3 µM; as for `CC(C)C(C#N)(CCCN1CCN(CCOc2cccc(Br)c2)CC1)c1ccccc1` (stereo not shown) [Example 109, 1-[(4-Cyano-5-methyl-4-phenyl)hexyl]-4-[2-(3-bromophenoxy)ethyl]piperazine], 3.3 µM. Regarding `CC(C)C(C#N)(CCCN1CCN(CCOc2ccccc2Br)CC1)c1ccccc1` (stereo not shown) [Example 110, 1-[(4-Cyano-5-methyl-4-phenyl)hexyl]-4-[2-(2-bromophenoxy)ethyl]piperazine], in assay [1], the IC50 turned out to be 3.5 µM. Consider `CC(C)C(C#N)(CCCN1CCN(CCOc2ccc(-n3ccnc3)cc2)CC1)c1ccccc1` (stereo not shown) [Example 111, 1-[(4-Cyano-5-methyl-4-phenyl)hexyl]-4-{2-[4-(imidazol-1-yl)phenoxy]ethyl}piperazine], for which the IC50 in assay [1] was over 16 µM.

Consider `CC(C)C(C#N)(CCCN1CCN(CCOc2ncccn2)CC1)c1ccccc1` (stereo not shown) [Example 112, 1-[(4-Cyano-5-methyl-4-phenyl)hexyl]-4-[2-(2-pyrimidinyloxy)ethyl]piperazine], for which, in assay [1], the half-maximal inhibitory concentration (IC50) was over 16 µM. Regarding `CC(C)C(C#N)(CCCN1CCN(CCOc2ccccc2-c2cccnc2)CC1)c1ccccc1` (stereo not shown) [Example 113, 1-[(4-Cyano-5-methyl-4-phenyl)hexyl]-4-{2-[2-(3-pyridyl)phenoxy]ethyl}piperazine], in assay [1], the half-maximal inhibitory concentration (IC50) came to 4.5 µM. In the case of `CC(C)C(C#N)(CCCN1CCN(CCOc2ccc(F)cc2)CC1)c1ccc(C#N)s1` (stereo not shown) [Example 114, 1-[4-Cyano-5-methyl-4-(2-cyano-5-thienyl)hexyl]-4-[2-(4-fluorophenoxy)ethyl]piperazine], in assay [1], the half-inhibitory concentration (IC50) is 6.8 µM. Same read-out and setting: next, `CC(C)C(C#N)(CCCN1CCN(CCOc2cccc(F)c2)CC1)c1ccc(C#N)s1` (stereo not shown) [Example 115, 1-[4-Cyano-5-methyl-4-(2-cyano-5-thienyl)hexyl]-4-[2-(3-fluorophenoxy)ethyl]piperazine]: 5.8 µM; `CC(C)C(C#N)(CCCN1CCN(CCOc2cccc(F)c2)CC1)c1cccs1` (stereo not shown) [Example 116, 1-[4-Cyano-5-methyl-4-(2-thienyl)hexyl]-4-[2-(3-fluorophenoxy)ethyl]piperazine]: 5.5 µM. As for `CC(C)C(C#N)(CCCN1CCN(CCOc2cccc(-c3ccsc3)c2)CC1)c1ccccc1` (stereo not shown) [Example 117, 1-[(4-Cyano-5-methyl-4-phenyl)hexyl]-4-{2-[3-(3-thienyl)phenoxy]ethyl}piperazine], the IC50 in assay [1] was 3.2 µM. Same read-out and setting: as for `Cc1cccc(/C=C/c2ccccc2OCCN2CCN(CCCC(C#N)(c3ccccc3)C(C)C)CC2)n1` (stereo not shown) [Example 118, 1-[(4-Cyano-5-methyl-4-phenyl)hexyl]-4-{2-[2-(6-methyl-2-pyridyl)vinylphenoxyl]ethyl}piperazine], the figure is 6.4 µM. Consider `CC(C)C(C#N)(CCCN1CCN(CCOc2cccc(C#N)c2)CC1)c1ccccc1` (stereo not shown) [Example 119, 1-[(4-Cyano-5-methyl-4-phenyl)hexyl]-4-[2-(3-cyanophenoxy)ethyl]piperazine], for which the IC50 in assay [1] is 7.7 µM. Still for that read-out and setting: as for `CC(C)C(C#N)(CCCN1CCN(CCOc2cccc(-c3ccccc3)c2)CC1)c1ccccc1` (stereo not shown) [Example 120, 1-[(4-Cyano-5-methyl-4-phenyl)hexyl]-4-[2-(3-phenylphenoxy)ethyl]piperazine], the figure is 4.1 µM; as for `CC(C)C(C#N)(CCCN1CCN(CCOc2cccc(/C=C/C#N)c2)CC1)c1ccccc1` (stereo not shown) [Example 121, 1-[(4-Cyano-5-methyl-4-phenyl)hexyl]-4-{2-[3-(2-cyanovinyl)phenoxy]ethyl}piperazine], 6.8 µM. On the same count and under the same terms, next, `CC(C)C(C#N)(CCC(=O)N1CCN(CCOc2ccc(F)cc2)CC1)c1ccccc1` (stereo not shown) [Example 122, 1-[(4-Cyano-5-methyl-4-phenyl)hexanoyl]-4-[2-(4-fluorophenoxy)ethyl]piperazine]: 12 µM.
